Laboratory results: US20050004079A1, “Pharmaceutical compositions for intranasal administration of [2-(8,9-dioxo-2,6-diazabicyclo[5.2.0]non-1(7)-en-2-yl)alkyl] phosphonic acid and derivatives and methods of use thereof” (Wyeth, priority 2003, published 2005)
Where two headings read alike, the source gives them in different places.

Tests used:
[1] = system: Prostaglandin E2-induced thermal hypersensitivity; assay: In vivo efficacy in rats: Prostaglandin E2-induced thermal hypersensitivity (warm-water tail withdrawal); set-up: species or system Spraque-Dawley rats; settings: for % MPE (reversal of PGE2-induced thermal hypersensitivity): rat, 30 min before PGE2
Protocol: Subjects: Individually housed Spraque-Dawley rats had free access to rat chow and water. A 12-h light/12-h dark cycle was in effect (lights on from 6:00 am to 6:00 pm). Animal maintenance and research were conducted in accordance with the guidelines provided by the National Institutes of Health Committee on Laboratory Animal Resources. These subjects were used in the tests below.
Procedure: The terminal 10 cm of the tail was placed into a thermos bottle containing water warmed to 38, 42, 46, 50 or 54° C. The latency in seconds for the animal to remove the tail from the water was used as a measure of nociception.
Following the assessment of baseline thermal sensitivity, thermal hypersensitivity was produced by a 50 μL injection of 0.1 mg prostaglandin E2 (PGE2) into the terminal 1 cm of the tail. Temperature-effect curves were generated before (baseline) and after (15, 30, 60, 90 and 120 min) the PGE2 injection.
The ability of compounds to reverse PGE2-induced thermal hypersensitivity was assessed using a single dose time-course procedure. Under this procedure, a single dose of the compound to be tested was administered intraperitoneally (IP), orally (PO) or intranasally (IN) 30 min before the injection of PGE2. […] sensitivity was assessed 30 min after PGE2 injection. For the IP and PO administration, compound was administered in a volume of 1 ml/kg with the dose administered calculated as mg/kg. For IN administration, rats were lightly anesthetized with 3.5% halothane in O2 and compound or vehicle was administered in a volume of 25 μL solution dropped into each nostril with the dose administered in absolute mg.
Data Analysis: The temperature that produced a half-maximal increase in the tail-withdrawal latency (i.e., T10) was calculated from each temperature-effect curve. The T10 was determined by interpolation from a line drawn between the point above and the point below 10 sec on the temperature-effect curve. For these studies, thermal hypersensitivity was defined as a leftward shift in the temperature-effect curve and a decrease in the T10 value. Reversal of thermal hypersensitivity was defined as a return to baseline of the temperature-effect curve and the T10 value and was calculated according to the following equation: [formula] in which T10^drug+PGE2 is the T10 after a drug in combination with PGE2, T10^PGE2 is the T10 after PGE2 alone, and T10^baseline is the T10 under control conditions. A % MPE value of 100 indicates a complete return to the baseline thermal sensitivity observed without the PGE2 injection.

[2] = monkey, in vivo, iv, 1.1 mg/kg
in vivo = settings: monkey, po

For `O=c1c2c(c1=O)N(CCP(=O)(O)O)CCCN2` [Compound A, [2-(8,9-dioxo-2,6-diazabicyclo[5.2.0]non-1(7)-en-2-yl)ethyl]phosphonic acid], the “in vivo efficacy of intranasal and intraperitoneal administration compared with oral administration” value ([1]; rat PGE2-induced thermal hypersensitivity model, intranasal and intraperitoneal found similar) was “ten folds higher”, the “% MPE (reversal of PGE2-induced thermal hypersensitivity)” value (shortened to “% MPE”) ([1]; IP, 1 mg/kg) was −7% and the “% MPE” value ([1]; IP, 3 mg/kg) was 66%. For the same compound, the “% MPE” value ([1]; IP, 10 mg/kg, 10 mg/kg) was 79%, the “% MPE” value ([1]; PO, 10 mg/kg) was 5% and the “% MPE” value ([1]; PO, 30 mg/kg) was 23%. The “% MPE” value ([1]; PO, 100 mg/kg, 100 mg/kg) was 87%, the AUC [2] was 1.67 ughr/ml and the AUC (in vivo; 20 mg/kg) was 1740 ng·h/mL. For the same compound, the Cmax (in vivo; 20 mg/kg) was 147 ng/mL and the bioavailability (in vivo; 100 mg/kg) was about 2.5%.
